Holding throughout (test): combination Emax (second highest fraction inhibited in the dose matrix, 72 h); higher = more inhibition; extreme values may be limits of the assay
Assay [1] has as its system ESS-1 (Other Solid Carcinomas). In a few lines: (§1)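 Cell lines in DMEM/F12 or RPMI with 10% FBS were plated in 1536-well plates, held 24 hours at 37°C, 5% CO2, then given two-drug dose matrices for 72 hours (DMSO typically 0.2%). Viability was read by CellTiter-Glo 2.0 luminescence and scaled as inhibition from 0 (vehicle wells) to 1 (blank wells). Combination Emax is the second-highest inhibition in the matrix; Bliss excess is observed combination effect minus expected EA + EB − EA·EB, EA and EB being single-agent effects.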

In assay [2] the test system is HH (T-Cell Non-Hodgkin's Lymphoma). In a few lines:
as §1

Assay [3] concerns NCI-H524 (Small Cell Lung Carcinoma). In a few lines:
as §1

The subject of assay [4] is OV-56 (Ovarian Carcinoma). In a few lines: as §1
Another assay has as its system A673 (Ewing's Sarcoma). In a few lines:
as §1

The test system of a further assay is GAMG (Glioblastoma). In a few lines: as §1
In assay [5] the test system is ALL-PO (B-Lymphoblastic Leukemia). In a few lines: as §1
For assay [6], the system named is L-428 (Hodgkin's Lymphoma). In a few lines: as §1
In assay [7] the test system is OE21 (Esophageal Squamous Cell Carcinoma). In a few lines:
as §1

For assay [8], the system named is HuH-7 (Hepatocellular Carcinoma). In a few lines:
as §1

The test system of assay [9] is BFTC-909 (Kidney Carcinoma). In a few lines:
as §1

A further assay deals with NCI-H2052 (Mesothelioma). In a few lines: as §1
The subject of another assay is BE2-M17 (Neuroblastoma). In a few lines: as §1
For assay [10], the system named is SNU-16 (Gastric Carcinoma). In a few lines: as §1
Assay [11] has as its system NCI-H209 (Small Cell Lung Carcinoma). In a few lines: as §1
The test system of another assay is MPP-89 (Mesothelioma). In a few lines:
as §1

Assay [12] relates to TGBC1TKB (Biliary Tract Carcinoma). In a few lines:
as §1

For assay [13], the system named is BE-13 (T-Lymphoblastic Leukemia). In a few lines: as §1
For assay [14], the system named is YAPC (Pancreatic Carcinoma). In a few lines: as §1
Assay [15] relates to WSU-NHL (B-Cell Non-Hodgkin's Lymphoma). In a few lines: as §1

The text below walks through data of the supplement of paper PMC11061612.

With `Cc1cc2ncnn2cc1Nc1ncc2c(n1)n(C1CCOCC1)c(=O)n2C` [AZD7648] + O=C(c1cc(Cc2n[nH]c(=O)c3ccccc23)ccc1F)N1CCN(C(=O)C2CC2)CC1 [Olaparib] (first compound max 10 µM, 7x7, partner max 10 µM), the “combination Emax” value in assay [1] came to 0.402; in assay [2], 0.22; in [3], 0.365; in assay [4], 0.103; in the assay with A673 (Ewing's Sarcoma), 0.585; with GAMG (Glioblastoma) it was 0.11. For the same compound, the “combination Emax” value in [5] turned out to be 0.608; in [6], 0.172; in [7], 0.354; in assay [8], 0.198; in assay [9], 0.305; with NCI-H2052 (Mesothelioma) it was 0.308. Besides, the “combination Emax” value worked out at 0.414 in the assay with BE2-M17 (Neuroblastoma); 0.463 in [10]; 0.917 in assay [11]; 0.28 in the assay on MPP-89 (Mesothelioma); 0.201 in assay [12]; 0.255 in [13]. The “combination Emax” value in assay [14] is 0.0464; in assay [15], 0.71.
As for `Cc1nc(Nc2ncc(C(=O)Nc3c(C)cccc3Cl)s2)cc(N2CCN(CCO)CC2)n1` [Dasatinib] + CC(=O)Nc1cccc(-n2c(=O)n(C3CC3)c(=O)c3c(Nc4ccc(I)cc4F)n(C)c(=O)c(C)c32)c1 [Trametinib] (first compound max 2 µM, 7x7, partner max 1 µM), the “combination Emax” value in assay [1] worked out at 0.776; in assay [2] it was 0.216; in [3] it was 0.0954; in [4], 0.446; in the assay on A673 (Ewing's Sarcoma), 0.237; with GAMG (Glioblastoma), 0.476. For the same compound, the “combination Emax” value came to 0.451 in assay [5]; 0.128 in assay [6]; 0.723 in assay [7]; 0.662 in [8]; 0.35 in assay [9]; 0.558 in the assay on NCI-H2052 (Mesothelioma). Also, the “combination Emax” value with BE2-M17 (Neuroblastoma) was determined as 0.868; in assay [10] it was 0.532; in assay [11], 0.124; with MPP-89 (Mesothelioma) it was 0.851; in assay [12], 0.715; in assay [13], 0.607. For the same compound, the “combination Emax” value in assay [14] came to 0.7; in assay [15], 0.962.
In the case of `C[C@@H](c1ccc2nccn2c1)n1nnc2ncc(-c3cnn(C)c3)nc21` [Savolitinib] + CC1(C)CCC(CN2CCN(c3ccc(C(=O)NS(=O)(=O)c4ccc(NCC5CCOCC5)c([N+](=O)[O-])c4)c(Oc4cnc5[nH]ccc5c4)c3)CC2)=C(c2ccc(Cl)cc2)C1 [Venetoclax] (first compound max 1 µM, 7x7, partner max 1 µM), the “combination Emax” value in assay [1] was 0.136; in [2], 0.134; in assay [3], 0.13; in assay [4], 0.158; with A673 (Ewing's Sarcoma), 0.309; in the assay on GAMG (Glioblastoma) it was 0.202. For the same compound, the “combination Emax” value was found to be 0.337 in assay [5]; 0.117 in assay [6]; 0.0581 in assay [7]; 0.15 in assay [8]; 0.242 in [9]; 0.121 in the assay on NCI-H2052 (Mesothelioma). For the same compound, the “combination Emax” value was 0.0964 with BE2-M17 (Neuroblastoma); 0.129 in assay [10]; 0.373 in assay [11]; 0.261 in the assay with MPP-89 (Mesothelioma); 0.144 in [12]; 0.196 in [13]. Further, the results for the “combination Emax” value in assay [14] and in assay [15] were 0.113 and 0.315, respectively.
Consider `Cc1cc2ncnn2cc1Nc1ncc2c(n1)n(C1CCOCC1)c(=O)n2C` [AZD7648] + C=CCn1c(=O)c2cnc(Nc3ccc(N4CCN(C)CC4)cc3)nc2n1-c1cccc(C(C)(C)O)n1 [AZD1775] (first compound max 10 µM, partner max 1 µM), for which the “combination Emax” value stood at 0.974 in assay [1]; 0.431 in [2]; 0.808 in [3]; 0.307 in assay [4]; 0.594 in the assay with A673 (Ewing's Sarcoma); 0.706 in the assay with GAMG (Glioblastoma). Also, the “combination Emax” value in [5] amounted to 0.966; in [6], 0.884; in [7], 0.673; in assay [8], 0.252; in assay [9], 0.619; in the assay on NCI-H2052 (Mesothelioma), 0.512. Also, the “combination Emax” value in the assay with BE2-M17 (Neuroblastoma) came to 0.704; in [10], 0.885; in assay [11], 0.743; with MPP-89 (Mesothelioma), 0.559; in assay [12] it was 0.335; in [13] it was 1. For the same compound, the “combination Emax” value worked out at 0.533 in [14] and 1 in [15].
For the compound `COc1nnc2ccc(N3CCC(c4ccc(OCCN5CCN(C)C(=O)[C@H]5C)cc4)CC3)nn12` [AZD5153] + CN(CC[C@H](CSC1=CC=CC=C1)NC2=C(C=C(C=C2)S(=O)(=O)NC(=O)C3=CC=C(C=C3)N4CCC(CC4)[C@H](C5=CC=CC=C5C6=CC=C(C=C6)Cl)O)S(=O)(=O)C(F)(F)F)CCO [AZD4320] (first compound max 1 µM, 7x7, partner max 1 µM), the “combination Emax” value stood at 0.507 in assay [4]; 1 in assay [5]; 0.943 in assay [6]; 0.739 in [7]; 0.786 in assay [8]; 0.71 in [9]. For the same compound, the results for the “combination Emax” value (with NCI-H2052 (Mesothelioma); in the assay with BE2-M17 (Neuroblastoma); in [11]) were 0.189, 0.915 and 1, respectively.
On to `CN(CCO)CC[C@H](CSc1ccccc1)Nc1ccc(S(=O)(=O)NC(=O)c2ccc(N3CCC([C@@H](O)c4ccccc4-c4ccc(Cl)cc4)CC3)cc2)cc1S(=O)(=O)C(F)(F)F` [AZD4320] + C[C@@H](Nc1cc(F)cc(F)c1)c1cc(C(=O)N(C)C)cc2c(=O)cc(N3CCOCC3)oc12 [AZD8186] (first compound max 1 µM, 7x7, partner max 3 µM), for which the “combination Emax” value in [1] came to 0.825; in assay [2] it was 0.455; in assay [3] it was 0.892; in assay [4], 0.277; with A673 (Ewing's Sarcoma), 0.971; with GAMG (Glioblastoma), 0.615. Moreover, the “combination Emax” value in [5] came out at 1; in assay [6], 0.748; in assay [7] it was 0.216; in assay [8], 0.583; in assay [9], 0.595; with NCI-H2052 (Mesothelioma), 0.262. In addition, the “combination Emax” value stood at 0.722 in the assay on BE2-M17 (Neuroblastoma); 0.658 in assay [10]; 1 in [11]; 0.494 in the assay with MPP-89 (Mesothelioma); 0.802 in assay [12]; 1 in assay [13]. The “combination Emax” value in assay [14] was found to be 0.237; in assay [15], 1.
